From the supplement of paper PMC10307832

What was measured:
Experiment in all cases: relative viability (nuclei count vs DMSO), 5 days (fraction); higher = more cells survive
[1] = compound: CN[C@@H]1C[C@H]2O[C@@](C)([C@@H]1OC)n1c3ccccc3c3c4c(c5c6ccccc6n2c5c31)C(=O)NC4 [Staurosporine] + COc1cc2c(Oc3ccc(NC(=O)C4(C(=O)Nc5ccc(F)cc5)CC4)cc3F)ccnc2cc1OCCCN1CCOCC1 [Foretinib] (partner 0.25 µM)
Outline: (§1)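 For relative viability, nuclei counts in treated wells were divided by those in vehicle wells. Lung cancer cell lines had been pin-tool dosed in 1536-well plates the day after seeding and cultured for 5 days, then fixed and stained in one step (final 0.05% Triton X-100, 1% formaldehyde, 1 ug/ml Hoechst) and imaged at 4×. Doses were one drug alone or a fixed anchor-drug dose plus five library-drug doses (not always all listed) in √10 steps, and values are duplicate-plate medians.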

[2] = compound: CN[C@@H]1C[C@H]2O[C@@](C)([C@@H]1OC)n1c3ccccc3c3c4c(c5c6ccccc6n2c5c31)C(=O)NC4 [Staurosporine] + CC1(C)CCC(c2ccc(Cl)cc2)=C(CN2CCN(c3ccc(C(=O)NS(=O)(=O)c4ccc(N[C@H](CCN5CCOCC5)CSc5ccccc5)c(S(=O)(=O)C(F)(F)F)c4)cc3)CC2)C1 [Navitoclax] (partner 0.5 µM)
Outline: as §1

[3] = compound: CN[C@@H]1C[C@H]2O[C@@](C)([C@@H]1OC)n1c3ccccc3c3c4c(c5c6ccccc6n2c5c31)C(=O)NC4 [Staurosporine] + Cc1nc(NC(=O)N2CCC[C@H]2C(N)=O)sc1-c1ccnc(C(C)(C)C(F)(F)F)c1 [Alpelisib] (partner 2 µM)
Outline: as §1

[4] = compound: O=c1[nH]cc(F)c(=O)[nH]1 [5-Fluorouracil] + CC(=O)Nc1cccc(-n2c(=O)n(C3CC3)c(=O)c3c(Nc4ccc(I)cc4F)n(C)c(=O)c(C)c32)c1 [Trametinib] (partner 0.02 µM)
Outline: as §1

Cell Line	relative viability ([1]; first compound 0.005 µM)	relative viability ([1]; first compound 0.01581 µM)	relative viability ([1]; first compound 0.05 µM)	relative viability ([1]; first compound 0.1581 µM)	relative viability ([1]; first compound 0.5 µM)	relative viability ([2]; first compound 0.005 µM)	relative viability ([2]; first compound 0.01581 µM)	relative viability ([2]; first compound 0.05 µM)	relative viability ([2]; first compound 0.1581 µM)	relative viability ([2]; first compound 0.5 µM)	relative viability ([3]; first compound 0.005 µM)	relative viability ([3]; first compound 0.01581 µM)	relative viability ([3]; first compound 0.05 µM)	relative viability ([3]; first compound 0.1581 µM)	relative viability ([3]; first compound 0.5 µM)	relative viability ([4]; first compound 0.02 µM)	relative viability ([4]; first compound 0.2 µM)	relative viability ([4]; first compound 0.6325 µM)	relative viability ([4]; first compound 2 µM)
HOP-62	0.801	0.233	0.142	0.125	0.119	0.957	0.528	0.152	0.121	0.104	1.25	0.816	0.115	0.0862	0.138	0.362	0.417	0.392	0.357
LC-2-ad	0.845	0.537	0.236	0.175	0.169	0.473	0.202	0.172	0.0798	0.0689	0.178	0.338	0.237	0.0434	0.0442	1.02	0.894	0.552	0.349
LCLC-97TM1	0.988	0.558	0.454	0.382	0.461	0.732	0.283	0.286	0.31	0.223	0.205	0.18	0.166	0.185	0.179	0.181	0.203	0.209	0.188
LK-2	1.07	–	1.09	0.437	0.409	0.965	0.54	0.456	0.109	0.0967	1.24	1.18	0.451	0.191	0.0868	0.713	0.769	0.633	0.453
LOU-NH91	0.923	0.816	0.627	0.512	0.238	0.725	0.455	0.367	0.269	0.249	0.718	0.575	0.457	0.304	0.305	0.814	0.871	0.818	0.596
LU99A	0.739	0.505	0.342	0.264	0.219	0.876	0.589	0.359	0.211	0.128	0.341	0.153	0.19	0.105	0.118	0.655	0.559	0.374	0.268
LXF-289	1.01	0.164	0.268	0.0989	0.0792	0.944	–	0.263	0.0806	0.14	0.902	–	0.197	0.0563	0.0673	0.674	0.591	0.346	0.33
NCI-H23	0.898	–	0.43	0.258	0.387	0.764	0.412	0.257	0.2	0.12	0.437	0.317	0.218	0.206	0.131	0.483	0.331	0.285	0.211
NCI-H322M	0.95	0.759	0.536	0.357	0.288	1.36	1.15	0.771	0.586	0.462	0.74	0.723	0.725	0.446	0.328	0.532	0.664	0.463	0.456
NCI-H441	0.822	0.503	0.354	0.215	0.194	0.521	0.333	0.325	0.16	0.17	0.615	0.328	0.316	0.218	0.229	0.567	0.499	0.402	0.38
NCI-H460	0.972	0.85	0.755	0.161	0.013	0.949	0.87	0.232	0.0102	0.0078	0.367	0.198	0.024	0.0141	0.0076	0.219	0.144	0.0819	0.0387
NCI-H520	0.692	0.759	0.548	0.409	0.18	1.15	0.935	0.408	0.204	0.13	1.2	0.784	0.544	0.477	0.165	0.624	0.666	0.439	0.311
NCI-H596	1.32	0.839	0.587	0.297	0.305	1.11	0.665	0.322	0.179	0.0954	0.59	0.325	0.284	0.174	0.165	0.845	0.649	0.632	0.479
NCI-H647	0.886	0.709	0.535	0.143	0.0766	0.728	0.142	0.291	0.0554	0.0386	0.51	0.218	0.117	0.0645	0.0592	0.444	0.479	0.406	0.393
NCI-H727	0.652	0.542	0.428	0.37	0.29	0.285	0.251	0.265	0.193	0.18	0.27	0.291	0.212	0.234	0.148	0.361	0.384	0.363	0.389
NCI-H838	0.51	0.228	0.208	0.185	0.0995	0.307	0.22	0.203	0.161	0.113	0.274	0.208	0.19	0.246	0.114	0.482	0.579	0.373	0.246
NCI-H1355	0.963	0.415	0.468	0.221	0.221	0.975	0.549	0.249	0.28	0.217	0.718	0.422	0.21	0.215	0.203	0.443	0.387	0.265	0.242

Cell Line	relative viability ([1]; first compound 0.005 µM)	relative viability ([1]; first compound 0.01581 µM)	relative viability ([1]; first compound 0.05 µM)	relative viability ([1]; first compound 0.1581 µM)	relative viability ([1]; first compound 0.5 µM)	relative viability ([2]; first compound 0.005 µM)	relative viability ([2]; first compound 0.01581 µM)	relative viability ([2]; first compound 0.05 µM)	relative viability ([2]; first compound 0.1581 µM)	relative viability ([2]; first compound 0.5 µM)	relative viability ([3]; first compound 0.005 µM)	relative viability ([3]; first compound 0.01581 µM)	relative viability ([3]; first compound 0.05 µM)	relative viability ([3]; first compound 0.1581 µM)	relative viability ([3]; first compound 0.5 µM)	relative viability ([4]; first compound 0.02 µM)	relative viability ([4]; first compound 0.2 µM)	relative viability ([4]; first compound 0.6325 µM)	relative viability ([4]; first compound 2 µM)
NCI-H1395	0.943	0.812	0.453	0.416	0.27	1.05	0.495	0.458	0.327	0.301	1.05	0.474	0.366	0.498	0.271	1.03	0.987	1.12	1.11
NCI-H1437	1.13	–	0.854	0.58	0.169	0.982	0.865	0.695	0.189	0.101	0.918	0.663	0.487	0.413	0.242	0.364	0.247	0.22	0.18
NCI-H1651	0.74	0.615	0.346	0.259	0.0644	0.897	0.559	0.305	0.112	0.0765	0.778	0.564	0.385	0.223	0.109	0.879	0.684	0.325	0.267
NCI-H1666	0.668	0.513	0.545	0.391	0.359	0.722	0.554	0.395	0.324	0.202	0.582	0.371	0.375	0.177	0.175	0.891	0.714	0.601	0.56
NCI-H1734	0.577	0.453	0.317	0.137	0.156	0.921	0.363	0.195	0.105	0.0733	0.635	0.344	0.239	0.202	0.149	0.709	0.682	0.584	0.415
NCI-H1755	0.729	0.471	0.261	0.189	0.164	1.01	0.633	0.253	0.185	0.138	0.591	0.418	0.183	0.16	0.14	0.796	0.688	0.417	0.37
NCI-H1793	0.784	–	0.474	0.217	0.353	0.573	0.238	0.326	0.23	0.264	0.774	0.506	0.593	0.383	0.179	0.398	0.49	0.373	0.38
NCI-H1915	–	0.542	0.552	0.283	0.278	0.829	–	0.449	0.369	0.26	1.11	–	0.587	0.445	0.357	0.28	0.325	0.253	0.283
NCI-H1944	0.756	–	0.431	0.39	0.251	1.08	–	0.763	0.562	0.359	0.953	–	0.483	0.384	0.341	0.412	0.333	0.244	0.195
NCI-H1975	0.4	0.349	0.21	0.104	0.0901	0.611	0.297	0.286	0.215	0.132	0.238	0.201	0.15	0.108	0.104	0.307	0.548	0.313	0.238
NCI-H1993	0.818	0.701	0.586	0.535	0.489	1.04	0.645	0.54	0.44	0.435	0.623	0.668	0.578	0.503	0.449	0.379	0.524	0.486	0.487
NCI-H2009	0.527	0.389	0.212	0.177	0.127	0.42	0.38	0.189	0.19	0.0825	0.864	0.276	0.267	0.173	0.141	0.255	0.271	0.247	0.215
NCI-H2023	0.526	–	0.174	0.107	0.0611	0.715	0.598	0.257	0.159	0.0924	0.56	0.28	0.274	0.15	0.0702	0.472	0.21	0.133	0.0877
NCI-H2085	0.516	0.437	0.324	0.195	0.26	0.757	0.583	0.541	0.415	0.366	0.609	0.53	0.495	0.343	0.28	0.412	0.607	0.563	0.563
NCI-H2087	0.863	0.561	0.252	0.112	0.0962	0.744	0.679	0.374	0.133	0.103	0.875	0.624	0.449	0.118	0.125	0.216	0.157	0.167	0.216
NCI-H2126	1.35	0.69	0.634	0.613	0.297	0.915	0.624	0.461	0.433	0.339	0.827	0.636	0.495	0.426	0.341	0.579	0.305	0.27	0.257
